In US4087418A, “Hexapeptides and methods for their production” (Parke, Davis & Company, priority 1976, dated 1978):

System: LRF (luteinizing hormone release factor) induced luteinizing hormone (LH) release
Test: In vitro LRF antagonist test in rat anterior pituitary cell cultures
Assay type: cell-based
Details: LRF alone, Molar Conc. 2.5×10^-10 (stimulation control)
Source text: Hexapeptides of this invention were screened for LRF antagonist activity in vitro using rat anterior pituitary cell cultures as described by Vale et. al. [Endocrinology, 91, 562 (1972)]. The inhibition of LRF (luteinizing hormone release factor) induced luteinizing hormone (LH) release into the culture medium is the endpoint in this in vitro bioassay.

LRF Control: luteinizing hormone releasing factor, also referred to as luteinizing hormone releasing hormone, LH-RH; stimulates secretion of luteinizing hormone (QHWSYGLRPG; Gonadoliberin-1; UniProt P01148 24-33, looked up)
LH Value: 38.98 ng/mL
